This is an account of results in US20080171716A1, “NUCLEIC ACID MODULATION OF TOLL-LIKE RECEPTOR-MEDIATED IMMUNE STIMULATION” (Protiva Biotherapeutics, Inc., priority 2006, published 2008).

One data set deals with TLR7/8. Nature of the data set: Cytokine induction in human PBMCs by immunostimulatory RNA, alone or co-formulated with modified ssRNA in the same SNALP/lipid particle. It counts as cell-based. The following applies: human PBMC cultures; lipid-formulated RNA alone; doses 0.1 to 3 μg/ml. The protocol:
All RNA molecules used in this study were heated at 90° C. for 3 min. and then placed at 37° C. for 60 min. Non-denaturing PAGE analysis on a 20% polyacrylamide gel was performed to confirm that ssRNA molecules were intact and that no duplexes had formed upon heating. The RNA molecules were encapsulated in a SNALP formulation comprising PEG-cDMA:DLinDMA:cholesterol:DSPC in a 2:40:48:10 mol % ratio (2:40 SNALP), prepared using a syringe press process.
Fresh human peripheral blood mononuclear cells (PBMCs) were isolated and seeded at about 3×10^5 cells/well in a total volume of 180 μl. Next, 20 μl of the appropriate SNALP diluted in PBS or 10 μl of naked TLR agonist were added to the PBMCs. For time course experiments, PBMCs were pretreated with UmodS ssRNA or a control and the appropriate naked TLR agonist was added at 0, 0.5, or 2 hours after pretreatment. When the SNALP and naked TLR agonist were added separately, the SNALP was added first followed by the naked TLR agonist. At t=24 hr., the cell supernatant was harvested and IFN-α and/or IL-6 levels were determined using ELISA.
The ssRNA molecules used in this study were heated at 90° C. for 3 min. and then placed at 37° C. for 60 min to disrupt any potential secondary structure. Non-denaturing PAGE analysis on a 20% polyacrylamide gel was performed to confirm that ssRNA molecules were intact and that no duplexes had formed upon heating. siRNA duplexes were prepared by annealing equimolar concentrations of two deprotected and desalted ssRNA oligonucleotides using standard procedures. Formation of annealed siRNA duplexes was confirmed by non-denaturing PAGE analysis on a 20% polyacrylamide gel. The RNA molecules were encapsulated in a 2:40 SNALP formulation prepared using a syringe press process.
Fresh human peripheral blood mononuclear cells (PBMCs) were isolated and seeded at about 3×10^5 cells/well in a total volume of 180 μl. Next, 20 μl of the appropriate SNALP diluted in PBS were added to the PBMCs. At t=24 hr., the cell supernatant was harvested and IFN-α and/or IL-6 levels were determined using an enzyme-linked immunosorbent assay (ELISA). For example, IFN-α and IL-6 levels can be measured using a sandwich ELISA kit available from PBL Biomedical (Piscataway, N.J.) and eBioscience (San Diego, Calif.), respectively.
(§1) Lipid Encapsulation of RNA and ODN. RNA or ODN were encapsulated in liposomes by a process of spontaneous vesicle formation as described in Judge et al., supra, and Jeffs et al., Pharm. Res., 22:362-372 (2005).
Cell Isolation and Culture. Human PBMCs were isolated from whole blood of healthy donors by a standard Ficoll-Hypaque density centrifugation. Blood was diluted 1:1 with PBS, layered onto Ficoll-Paque Plus, and centrifuged at 1600 RPM for 30 min. PBMCs were washed in PBS twice followed by resuspension in complete media (RPMI 1640, 10% heat inactivated FBS, 2 mM L-glutamine, and 1% penicillin/streptomycin). PBMCs were plated at 2.5×10^5 cells/well in 96 well plates for cytokine induction assays.
(§2) Loxoribine (InvivoGen; San Diego, Calif.), polyIC (Sigma-Aldrich; St. Louis, Mo.), and formulated nucleic acids were diluted in PBS and added to either human PBMC or Flt3L DC cultures. Cells were incubated 24 h at 37° C. before supernatants were assayed for cytokines by ELISA.
(§3) Cytokine ELISA. All cytokines were quantified using sandwich ELISA kits according to the manufacturer's instructions. These were mouse and human IFN-α (PBL Biomedical; Piscataway, N.J.) and IL-6 (eBioscience; San Diego, Calif.).

The target of data set [1] is T1, TLR7 (Mus musculus, UniProt P58681).
T1 sequence (P58681 27-1050): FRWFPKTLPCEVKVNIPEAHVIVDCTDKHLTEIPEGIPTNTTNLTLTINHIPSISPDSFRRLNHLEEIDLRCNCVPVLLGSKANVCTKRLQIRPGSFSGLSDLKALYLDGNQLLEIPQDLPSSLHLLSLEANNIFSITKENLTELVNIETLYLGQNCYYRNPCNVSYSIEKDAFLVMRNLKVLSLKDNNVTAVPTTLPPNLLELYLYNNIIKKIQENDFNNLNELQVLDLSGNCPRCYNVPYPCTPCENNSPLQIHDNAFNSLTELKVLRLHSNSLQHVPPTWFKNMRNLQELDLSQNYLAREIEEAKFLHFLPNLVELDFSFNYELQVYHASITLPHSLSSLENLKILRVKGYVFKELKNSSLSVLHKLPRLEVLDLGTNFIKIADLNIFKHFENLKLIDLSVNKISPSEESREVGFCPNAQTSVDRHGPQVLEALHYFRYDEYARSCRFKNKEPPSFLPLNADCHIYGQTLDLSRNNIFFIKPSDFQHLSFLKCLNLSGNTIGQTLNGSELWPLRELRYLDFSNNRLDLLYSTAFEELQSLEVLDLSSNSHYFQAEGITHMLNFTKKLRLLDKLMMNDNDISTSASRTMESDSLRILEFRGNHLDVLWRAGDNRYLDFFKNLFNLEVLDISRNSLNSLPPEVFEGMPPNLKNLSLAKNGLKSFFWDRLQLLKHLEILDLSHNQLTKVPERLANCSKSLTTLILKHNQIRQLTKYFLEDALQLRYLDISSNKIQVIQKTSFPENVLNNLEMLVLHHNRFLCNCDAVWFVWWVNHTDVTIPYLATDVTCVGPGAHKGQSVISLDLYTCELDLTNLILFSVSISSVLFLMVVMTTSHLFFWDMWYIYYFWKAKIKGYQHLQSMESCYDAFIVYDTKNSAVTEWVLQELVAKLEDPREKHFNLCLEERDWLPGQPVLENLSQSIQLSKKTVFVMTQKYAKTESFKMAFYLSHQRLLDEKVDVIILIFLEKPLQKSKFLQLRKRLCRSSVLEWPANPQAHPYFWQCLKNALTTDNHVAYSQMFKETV
Nature of the data set: In vivo cytokine induction by formulated ssRNA in mice. Further details: from tissue; host or cells: whole animal: female Balb/C mice, plasma cytokines; species or system Balb/C mice. Particulars: IV, plasma 6 h after administration. As for the experimental part: as §3
(§4) In Vivo Cytokine Induction. Animal studies were performed at Protiva Biotherapeutics in accordance with Canadian Council on Animal Care guidelines and following protocol approval by the local Animal Care and Use Committee. Female Balb/C mice were subjected to a two-week quarantine and acclimation period prior to use at six to eight-weeks of age. RNA formulations were administered by standard injection in the lateral tail vein in 0.2 ml PBS. Six hours after injection, blood was collected by cardiac puncture and processed as plasma for cytokine analysis. In experiments studying inhibition of cytokine induction by loxoribine, formulated RNA (100 μg) was administered IV 2 h prior to IV administration of 1 mg loxoribine in PBS. Blood was collected by cardiac puncture 2 h after administration of loxoribine and processed as plasma for cytokine analysis.

Data set [2] addresses T1, TLR7. The data set is described as follows: In vivo inhibition of loxoribine-mediated cytokine induction in mice. Details: from tissue; host or cells: whole animal: female Balb/C mice, plasma cytokines; species or system Balb/C mice. Particulars: 100 μg formulated RNA IV 2 h prior to 1 mg Lox. As for the experimental part:
as §3, §4

Another data set addresses T2, TLR9 (Mus musculus, UniProt Q9EQU3).
T2 construct: endogenous in cells; host or cells: Flt3L-derived dendritic cells cultured from bone marrow of female Balb/C mice
T2 sequence (Q9EQU3 26-1032): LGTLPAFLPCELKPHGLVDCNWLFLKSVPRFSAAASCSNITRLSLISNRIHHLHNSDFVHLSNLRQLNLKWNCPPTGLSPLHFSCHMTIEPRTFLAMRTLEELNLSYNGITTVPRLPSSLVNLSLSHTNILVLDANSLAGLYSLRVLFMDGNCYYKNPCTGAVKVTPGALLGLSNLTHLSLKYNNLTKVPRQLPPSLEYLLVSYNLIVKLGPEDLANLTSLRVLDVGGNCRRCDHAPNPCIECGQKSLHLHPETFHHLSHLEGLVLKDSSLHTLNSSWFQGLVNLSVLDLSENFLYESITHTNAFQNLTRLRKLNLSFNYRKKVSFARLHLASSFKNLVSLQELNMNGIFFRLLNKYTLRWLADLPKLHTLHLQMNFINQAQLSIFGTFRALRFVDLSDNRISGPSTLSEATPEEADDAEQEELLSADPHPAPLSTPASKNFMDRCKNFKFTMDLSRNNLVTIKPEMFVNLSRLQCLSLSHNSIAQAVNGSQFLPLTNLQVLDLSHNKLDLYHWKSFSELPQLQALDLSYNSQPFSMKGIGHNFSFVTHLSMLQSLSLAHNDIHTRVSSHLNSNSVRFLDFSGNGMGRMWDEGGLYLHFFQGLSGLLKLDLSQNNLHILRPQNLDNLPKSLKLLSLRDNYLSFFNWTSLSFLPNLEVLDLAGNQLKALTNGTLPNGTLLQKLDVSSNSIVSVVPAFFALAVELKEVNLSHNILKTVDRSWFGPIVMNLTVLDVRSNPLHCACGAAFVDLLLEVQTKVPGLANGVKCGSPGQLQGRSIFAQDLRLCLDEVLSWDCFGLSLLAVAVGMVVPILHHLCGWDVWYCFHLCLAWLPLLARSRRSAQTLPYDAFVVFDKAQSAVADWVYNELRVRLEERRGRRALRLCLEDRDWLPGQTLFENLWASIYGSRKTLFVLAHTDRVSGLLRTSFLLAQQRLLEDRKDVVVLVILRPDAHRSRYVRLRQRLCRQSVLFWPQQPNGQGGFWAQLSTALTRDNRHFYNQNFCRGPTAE
The data set is described as follows: CpG ODN (TLR9 agonist)-induced IFN-α in murine Flt3L-derived dendritic cells. The data set is classed as cell-based. The following applies: murine Flt3L cultures; phosphodiester backbone; formulated in lipid nanoparticles. As for the experimental part:
as §1
Flt3L-derived dendritic cells (DC) were generated as described in Gilliet et al., J. Exp. Med., 195:953-958 (2002), using 100 ng/ml murine Flt3-ligand (Peprotech) supplemented media. Femurs and tibiae of female Balb/C mice were isolated and rinsed in sterile PBS. The ends of bones were cut and marrow harvested in complete media (RPMI 1640, 10% heat inactivated FBS, 1% penicillin/streptomycin, 2 mM L-glutamine, 1 mM sodium pyruvate, 25 mM HEPES, 50 μM 2-mercaptoethanol). Bone marrow cells were passed through a 70 μm strainer and centrifuged at 1000 rpm for 7 min. and resuspended in complete media supplemented with 100 ng/ml murine Flt3L to 2×10^6 cells/ml. 2 ml of cells were seeded in 6-well plates and 1 ml fresh media was added every two to three days. On day 9 of culture, non-adherent cells were washed in complete media and plated into 96-well plates at concentrations ranging from 0.5 to 2.5×10^5 cells/well.
as §2, §3

As to “βgal-AS: immunostimulatory ssRNA: AAAUCGCUGAUUUGUGUAGUU (chemistry not given here) [reference compound]”, in the data set on TLR7/8, the “IFN-α production induced by the RNA alone” value is “induced high levels of IFN-α”. Besides, in the data set with TLR7 [1], the “plasma IFN-α after administration of the formulated RNA alone” value is “significant elevations” and the “plasma IL-6 after administration of the formulated RNA alone” value is reported as “significant elevations”.

Regarding “GFP-S: native non-stimulatory ssRNA: GGCUACGUCCAGGAGCGCAUU (RNA, backbone not given here) [reference compound]”, the “response to loxoribine (plasma IFN-α and IL-6) after pre-treatment” value with TLR7 [2] is given as “robust response”.

Regarding “ODN 6295: CpG Type A ODN, phosphodiester: TAACGTTGAGGGGCAT (DNA, all phosphodiester, methylation of C not given here; formulated in lipid nanoparticles)”, in the data set with TLR9, the “immunostimulatory activity of the ODN alone” value was “highly immunostimulatory”. The same measure, in the same setting: the result for “ODN M362: CpG Type C ODN, phosphodiester: TCGTCGTCGTTCGAACGACGTTGAT (DNA, all phosphodiester, methylation of C not given here; formulated in lipid nanoparticles)” reads “highly immunostimulatory”.

ODN 1826: the “immunostimulatory activity of the ODN alone” value on TLR9 was “highly immunostimulatory”.
